What was measured:
Trypanosoma cruzi [1] = assay: Anti-protozoan action 1 (in vitro), T. cruzi-infected A204 cells; type: cell-based; set-up: key: +++: same number of protozoa alive as control; ++: slightly less number alive than control; +: less number alive than control; ±: only a few alive; -: all dead; details: A204 cells infected with T. cruzi, 37° C., 24 hours
Experimental: A204 cells (derived from a […]), which had been infected in advance with Trypanosoma cruzi and maintained by subculture at 37° C., were cultured in a 24-well plate for tissue culture. The protozoa in the number of about 10^5 were confirmed to be present. After the cells were treated with 50 μmol, 100 μmol and 500 μmol of compounds 1) to 3), they were cultured at 37° C. for 24 hours. Life and death of the protozoa was observed under microscope and scored. The medium used was Dulbecco Modified Eagle Medium manufactured by Dainihon-Seiyaku K. K. added with 10% bovine serum. Control was free of any of compounds 1 to 3).

Trypanosoma cruzi [2] = assay: Anti-protozoan action 2 (in vitro), T. cruzi culture in GIT medium; type: cell-based; set-up: key: +++: same number of protozoa alive as control; ++: slightly less number alive than control; +: less number alive than control; ±: only a few alive; -: all dead; details: GIT medium (serum-free), 27° C., 120 hours
Experimental: Trypanosoma cruzi was cultured at 27° C. in a GIT medium (serum-free medium) manufactured by Nippon Seiyaku K. K. which was modified to contain […] of hemine. 50 μmol, 100 μmol, 250 μmol and 500 μmol of each of compounds 1) to 3) were added thereto. 120 hours later, life or death of the protozoa was observed under microscope and scored according to the criteria in Example 1. Control was free of any of compounds 1) to 3).

Acute toxicity = details: mouse, in vivo, ip
Text: ICR mice were intraperitoneally administered with compound 1) for the acute toxicity test. Observation was continued for 14 days after the administration.

[3] = test system: Trypanosoma cruzi (Tulahuen strain); assay: Anti-protozoan action (in vivo), survival of infected ICR mice (Example 3); set-up: species or system Trypanosoma cruzi (Tulahuen strain) in male ICR mice; details: 200 mg/kg on days 5-9; 400,000 T. cruzi i.p.; all of 3 mice; control 14-15 days
Experimental: Trypanosoma cruzi (Tulahuen strain) in the number of 400,000 was intraperitoneally administered to a group of 4 week old male ICR mice. At each of fifth, sixth, seventh, eighth and ninth day of the administration,200 mg/kg of compound 1) was given to the mice. Control group was given saline solution instead of compound 1). The anti-protozoan effect of compound 1) was determined based on the days of survival of the mice.

[4] = test system: Trypanosoma cruzi (Tulahuen strain); assay: Anti-protozoan action (in vivo), survival of infected C3H/Hecrj mice (Example 4); set-up: species or system Trypanosoma cruzi (Tulahuen strain) in male C3H/Hecrj mice; details: 200 mg/kg on days 4-8; 200,000 T. cruzi i.p.; 4 mice; control 12 days
Experimental: Trypanosoma cruzi (Tulahuen strain) in the number of 200,000 was intraperitoneally administered to a group of 5 week old male C3H/Hecrj mice. At each of fourth, fifth, sixth, seventh and eighth day of the administration, 200 mg/kg of compound 1) was given to the mice. Control group was given saline solution instead of compound 1). The anti-protozoaneffect of compound 1) was determined based on the days of survival of the mice.

[5] = test system: Trypanosoma cruzi (Tulahuen Strain); assay: Deaths and presence of protozoa in infected ICR mice, compound 1) with or without anionic copolymer (Example 5); type: in vivo, Trypanosoma cruzi (Tulahuen Strain) in ICR male mice
Experimental: Five groups (Groups 1 to 5) of four week old ICR male mice, each group consisting of 3 mice, were provided. Group 2 and Group 5 mice were given 4.4 mg of acrylic acid-diisobutylvinyl ether copolymer (monomer ratio=1:1, average molecular weight=1.29×10^5) as dissolved in a 0.2 ml saline. On the second day, all animals were intraperitoneally given Trypanosoma cruzi (Tulahuen Strain) in the number of 40,000 for each. On the fifth, sixth, seventh, eighth and ninth day of the administration of the Tripanosoma, Group 1 and Group 2 mice were given saline, and Group 3 and Group 5 mice were given compound 1) (200 mg/kg) as dissolved in saline. Group 4 mice were intraperitoneally given 4.4 mg of acrylic acid-diisobutyl vinyl ether copolymer (monomer ratio=1:1, average molecular weight=1.29×10^5) and compound 1) (200 mg/kg) on the fifth day of the administration of the Trypanosoma, and on the sixth, seventh, eighth and ninth day of the administration, compound 1) (200 mg/kg) was intraperitoneally administered. Observation was continued until 60 th day of administration of Trypanosoma. The mice which were alive on the 60th day were killed and dissected to check the presence or absence of the protozoa in blood, the heart and in the liver under microscope.

[6] = ICR mice, intraperitoneal, observation 14 days

## O=[N+]([O-])c1nccn1COC(CO)CO [Compound 2)]
Trypanosoma cruzi [1]; 50 μmol
  Life and death of the protozoa, score: ++
Trypanosoma cruzi [1]; 100 μmol
  Life and death of the protozoa, score: ++
Trypanosoma cruzi [1]; 500 μmol
  Life and death of the protozoa, score: -
Trypanosoma cruzi [2]; 50 μmol
  Life or death of the protozoa, score: +++
Trypanosoma cruzi [2]; 100 μmol
  Life or death of the protozoa, score: +++
Trypanosoma cruzi [2]; 250 μmol
  Life or death of the protozoa, score: +++
Trypanosoma cruzi [2]; 500 μmol
  Life or death of the protozoa, score: +++
Acute toxicity; [6]
  LD50 at 336 h: 4300 mg/kg

## O=[N+]([O-])c1nccn1COCC=CCO [Compound 1)]
Trypanosoma cruzi [1]; 50 μmol
  Life and death of the protozoa, score: ±
Trypanosoma cruzi [1]; 100 μmol
  Life and death of the protozoa, score: -
Trypanosoma cruzi [1]; 500 μmol
  Life and death of the protozoa, score: -
Trypanosoma cruzi [2]; 50 μmol
  Life or death of the protozoa, score: ++
Trypanosoma cruzi [2]; 100 μmol
  Life or death of the protozoa, score: ++
Trypanosoma cruzi [2]; 250 μmol
  Life or death of the protozoa, score: +
Trypanosoma cruzi [2]; 500 μmol
  Life or death of the protozoa, score: -
[3]
  days of survival of the mice: more than 50 days
[4]
  days of survival of the mice: more than 20 days
[5]; Group 3: compound 1) 200 mg/kg on days 5-9
  Number of Dead Samples: 0
[5]; Group Nos. 3, 4 and 5
  death in the groups given compound 1): no death
Acute toxicity
  LD50 at 336 h: 830 mg/kg

## O=[N+]([O-])c1nccn1[C@H]1O[C@H](CO)[C@@H](O)[C@H]1O [Compound 3)]
Trypanosoma cruzi [1]; 50 μmol
  Life and death of the protozoa, score: ++
Trypanosoma cruzi [1]; 100 μmol
  Life and death of the protozoa, score: ++
Trypanosoma cruzi [1]; 500 μmol
  Life and death of the protozoa, score: +
Trypanosoma cruzi [2]; 50 μmol
  Life or death of the protozoa, score: +++
Trypanosoma cruzi [2]; 100 μmol
  Life or death of the protozoa, score: +++
Trypanosoma cruzi [2]; 250 μmol
  Life or death of the protozoa, score: +++
Trypanosoma cruzi [2]; 500 μmol
  Life or death of the protozoa, score: +
Acute toxicity; [6]
  LD50 at 336 h: > 5000 mg/kg

— patent US5310749A, “Antiprotozoal composition containing a 2-nitroimidazole derivative and method thereof” (Pola Chemical Industries Inc., priority 1991, dated 1994)
